Test results taken from publication PMC4510133 (PLoS ONE, 2015).
“And” between values parts separate entries of the source, which are not always exact repeats. Equal entries are not always repeated. Where two headings read alike, the source gives them in different places. Each block holds one molecule with its values, some of them ahead of it.

Assays:
spinach Rubisco [1] = target: T1, spinach Rubisco (Spinacia oleracea, UniProt P00875); experiment: Radiolabelled [3H]-(±)-ABA binding assay (saturation and competition); set-up: Commercially available Rubisco from spinach (Sigma-Aldrich); catalogue # R8000; purchased Sigma-Aldrich R8000; conditions: 25 nM [3H]-(±)-ABA
Description: A fresh aliquot of this Rubisco was subsequently dissolved in binding buffer (50 mM bicine, 15 mM MgCl2, 20 mM NaCl, pH 7.9) and placed on ice. The total volume for each assay sample was 30 μL. Protein solution (30 μg protein) was mixed with [^3H]-(±)-ABA (specific activity 37 Ci mmol^-1 radiolabelled: non-radiolabelled ratio 1.8:1) at the indicated concentrations in the presence and absence of 500 μM (+)-ABA, incubated at RT for 30 minutes. Samples (15 μL) from each reaction were transferred into SPN columns (G-biosciences), to which 100 μL of cold OrgoSol^TM buffer (chilled at -20°C) was added. The columns were spun at 10,000 x g for 10 s and the wash repeated once. The matrix of each SPN column was then removed and placed in scintillation vials containing Aqasol^TM scintillation fluid and soaked for at least 24 hours prior to counting radioactivity using a Beckman Coulter Multi-Purpose Scintillation Counter. Control samples not containing the protein, but treated with [^3H]-(±)-ABA, were also prepared and values subtracted from experimental samples. Signal corresponding to specific [^3H]-(±)-ABA binding was calculated from the difference between samples with [^3H]-(±)-ABA and those containing 1000-fold excess of non-radiolabelled (+)-ABA. Each sample was replicated 5–10 times and readings averaged. Competition was performed as described above, with the concentration of [^3H]-(±)-ABA at 25 nM in all samples, and non-radiolabeled (+)-ABA added at the indicated concentrations. The same procedure was applied using non-radiolabeled (-)-ABA, PA (phaseic acid), and trans-ABA. Values obtained for the same experiment washed with a 10,000 fold excess of unlabelled (±)-ABA were subtracted to account for any non-specific binding.

non-activated Rubisco [2] = target: non-activated Rubisco; set-up: method as in earlier work; conditions: 1 unit / mg ref 49, read-out: Kd by ITC; cited from earlier work
non-activated Rubisco [3] = target: non-activated Rubisco; set-up: method as in PMID 6417133; conditions: non-activated Rubisco ref 13; read-out: KD, radiolabelled binding assay; cited from earlier work
spinach Rubisco [4] = target: T1, spinach Rubisco; experiment: Isothermal titration calorimetry; conditions: for stoichiometry (n) by ITC: 20°C, Independent binding model
activated Rubisco = conditions: read-out: Km, activated Rubisco-RuBP complex; activated Rubisco ref 13; cited from earlier work
spinach Rubisco [5] = target: T1, spinach Rubisco; experiment: Rubisco activation (carbamylation), initial rate analysis with non-activated enzyme; format: biochemical; set-up: Commercially available Rubisco from spinach (Sigma-Aldrich); catalogue # R8000; purchased Sigma-Aldrich R8000
Description: Commercially available Rubisco from spinach (Sigma-Aldrich; catalogue # R8000; S1 Fig; specific activity 0.05 units / mg) was dissolved in a buffer containing 15 mM MgCl2 and 25 mM NaHCO3 at pH 8.0 for activation. Each assay (total volume, 1.0 mL) contained 50 mM Bicine (pH 8.0), 15 mM MgCl2, 10 mM NaCl, 5 mm DTT, 5 mM phosphocreatine, 5 mM ATP, 5 mM phosphoenolpyruvate, and 25 mM NaHCO3. This mixture was prepared before each set of experiments. Five minutes before initiating the reaction with the addition of activated Rubisco, the following were added: RuBP at the indicated concentrations), 0.4 mM NADH, 20 units mL-^-1 of glyceraldehyde-3-phosphate dehydrogenase, 20 units mL-^-1 of 3-phosphoglycerate kinase, and 2 units mL^-1 of creatine phosphokinase. Following the addition of activated Rubisco to a final concentration of 0.3 mg mL^-1, the NADH concentration was measured spectrophotometrically (λ = 340 nm) at 5 s intervals for 5 min. Absorbance values were converted to NADH concentrations using an extinction coefficient of 6.22 mM^-1. Reaction rates were evaluated from the slope of absorbance vs. time curves and plotted against concentration of RuBP. […] The non-activated Rubisco was then pre-incubated on ice for at least 10 minutes with or without the indicated concentrations of (+)-ABA, and the reactions initiated and monitored as described above. […]

ABA-receptor (PYL5) = conditions: PYL5 ref 48; read-out: Kd by ITC; cited from earlier work

Molecule: CC1=CC(=O)CC(C)(C)[C@]1(O)/C=C/C(C)=C\C(=O)O [(-)-ABA]
Competition: displacement of [3H]-(±)-ABA by non-radiolabeled compound (spinach Rubisco [1]): equally effective as competitors

Competition: displacement of [3H]-(±)-ABA by non-radiolabeled compound (spinach Rubisco [1]): ineffective as competitors
Molecule: CC(=C/C(=O)O)/C=C/[C@]1(O)[C@@]2(C)CO[C@]1(C)CC(=O)C2 [PA, phaseic acid]

Molecule: O=C(COP(=O)(O)O)[C@H](O)[C@H](O)COP(=O)(O)O [RuBP, ribulose-1,5-bisphosphate]
Kd (non-activated Rubisco [2]): 300 nM | Kd (non-activated Rubisco [3]): 21 nM | Kd (spinach Rubisco [4]): 31400 nM | stoichiometry (n) by ITC (spinach Rubisco [4]): 2.5 | Km (activated Rubisco): 21 µM

Molecule: CC1=CC(=O)CC(C)(C)[C@@]1(O)/C=C/C(C)=C/C(=O)O [trans-(+)-ABA]
Competition: displacement of [3H]-(±)-ABA by non-radiolabeled compound (spinach Rubisco [1]): ineffective as competitors

Molecule: Abscisic acid [(+)-ABA]
effect on initial rate (activation) (spinach Rubisco [5]; 100-250 μM (+)-ABA, 7 mM NaHCO3, S3 Fig, no effect on equilibrium rate (catalysis)): inhibitory effect | potency on Rubisco activation versus Rubisco catalysis (spinach Rubisco [5]; ratio of Ki values): more than 10 fold | Competition: displacement of [3H]-(±)-ABA by non-radiolabeled compound (spinach Rubisco [1]): equally effective as competitors | Kd (ABA-receptor (PYL5)): 1200 nM | stoichiometry (n) by ITC (spinach Rubisco [4]): 19.9 and 19
